Tests used:
[1] = target: T1, Sphingosine 1-phosphate receptor 1 (Homo sapiens, UniProt P21453); experiment: Displacement of [33P]-S1P from human S1P1 receptor expressed in CHO cell membranes
[2] = target: T2, Sphingosine 1-phosphate receptor 3 (Homo sapiens, UniProt Q99500); experiment: Displacement of [33P]-S1P from human S1P3 receptor expressed in CHO cell membranes
[3] = system: Trachea; experiment: Induction of tracheal constriction in Wistar rat at 1 uM
[4] = system: Trachea; experiment: Induction of tracheal constriction in Wistar rat at 10 uM
[5] = system: Mus musculus; experiment: Reduction in peripheral lymphocyte level in mouse administered iv measured 3 hrs post dose; type: functional
[6] = target: T2, Sphingosine 1-phosphate receptor 3; experiment: Displacement of [33P]-S1P from S1P3 receptor (unknown origin) expressed in CHO cell membranes
[7] = target: T1, Sphingosine 1-phosphate receptor 1; experiment: Displacement of [33P]-S1P from S1P1 receptor (unknown origin) expressed in CHO cell membranes
[8] = system: Mus musculus; experiment: Reduction in peripheral lymphocyte level in mouse administered po measured 3 hrs post dose; type: functional
[9] = Oral bioavailability in mouse; type: ADME, organism-based; conditions: in vivo
[10] = species: Homo sapiens; experiment: Toxicity in human assessed as reduction in heart rate at 10 mg measured on day 1; conditions: in vivo
[11] = species: Homo sapiens; experiment: Toxicity in human assessed as reduction in heart rate at 10 mg measured 2 hrs post dose; conditions: in vivo
[12] = system: Mus musculus; experiment: Immunosuppressive activity in BALB/c mouse assessed as reduction in peripheral blood lymphocytes at 30 mg/kg, ip measured 4 days post dose; type: functional; set-up: scale not given: the % may be the effect or the level left
[13] = target: T1, Sphingosine 1-phosphate receptor 1; experiment: Displacement of [33P]-S1P from S1P1 receptor (unknown origin) expressed in CHOK1 cells after 60 mins by microbeta scintillation proximity assay; type: cell-based
[14] = target: T2, Sphingosine 1-phosphate receptor 3; experiment: Displacement of [33P]-S1P from S1P3 receptor (unknown origin) expressed in CHOK1 cells after 60 mins by microbeta scintillation proximity assay; type: cell-based
[15] = system: Mus musculus; experiment: Reduction in peripheral lymphocyte level in Swiss mouse at 10 mg/kg, po measured 24 hrs post dose; type: functional; set-up: scale not given: the % may be the effect or the level left
[16] = Half life in po dosed Sprague-Dawley rat; type: ADME, organism-based; conditions: in vivo
[17] = Half life in iv dosed Sprague-Dawley rat; type: ADME, organism-based; conditions: in vivo
[18] = species: Homo sapiens; experiment: Toxicity in human assessed as reduction in heart rate at 1.25 mg measured for 2 days; conditions: in vivo, 48 h
[19] = species: Homo sapiens; experiment: Toxicity in human assessed as reduction in heart rate measured every day for 9 days; conditions: 216 h
[20] = system: Rattus norvegicus; experiment: Reduction in peripheral lymphocyte level in rat at 10 mg/kg, po measured 6 hrs post dose; type: functional; set-up: scale not given: the % may be the effect or the level left
[21] = target: T1, Sphingosine 1-phosphate receptor 1; experiment: Agonist activity at human S1P1 receptor expressed in CHO cell membranes after 45 mins by [35S] GTPgammaS binding based scintillation counting analysis; type: functional
[22] = target: T2, Sphingosine 1-phosphate receptor 3; experiment: Agonist activity at human S1P3 receptor expressed in CHO cell membranes after 45 mins by [35S] GTPgammaS binding based scintillation counting analysis; type: functional

T1 sequence (P21453 whole entry): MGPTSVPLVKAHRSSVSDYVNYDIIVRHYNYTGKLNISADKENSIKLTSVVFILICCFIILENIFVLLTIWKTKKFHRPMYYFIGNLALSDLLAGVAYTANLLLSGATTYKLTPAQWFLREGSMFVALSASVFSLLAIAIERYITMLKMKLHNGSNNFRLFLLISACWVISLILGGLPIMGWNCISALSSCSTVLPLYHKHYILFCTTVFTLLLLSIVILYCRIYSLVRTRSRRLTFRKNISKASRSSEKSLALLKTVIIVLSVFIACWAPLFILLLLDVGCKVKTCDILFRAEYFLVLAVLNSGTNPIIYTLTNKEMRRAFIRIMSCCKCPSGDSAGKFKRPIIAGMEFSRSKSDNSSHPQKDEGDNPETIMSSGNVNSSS
T2 sequence (Q99500 whole entry): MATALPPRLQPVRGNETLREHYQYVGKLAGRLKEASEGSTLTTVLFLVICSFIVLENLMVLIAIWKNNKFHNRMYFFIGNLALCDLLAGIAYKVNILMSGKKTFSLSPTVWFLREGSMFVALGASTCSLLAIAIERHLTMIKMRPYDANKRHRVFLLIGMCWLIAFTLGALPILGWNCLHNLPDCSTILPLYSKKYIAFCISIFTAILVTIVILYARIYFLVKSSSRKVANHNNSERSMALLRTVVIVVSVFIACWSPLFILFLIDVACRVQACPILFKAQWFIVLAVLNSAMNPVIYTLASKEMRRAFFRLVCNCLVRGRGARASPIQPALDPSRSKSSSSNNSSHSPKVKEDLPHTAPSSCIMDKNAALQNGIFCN

For `CCCCCCCCc1ccc(CC[C@@H](N)CCP(=O)(O)O)cc1`, which IC50 [1] is on record?
The IC50 was 8.4 nM.

And the IC50 [2]?
Its IC50 is 280 nM.

Which Activity [3] does the source give for `CCc1cc(-c2noc(-c3cc(OC)nc(C(CC)CC)c3)n2)cc(C)c1OC[C@@H](O)CNC(=O)CO` here?
Its Activity is under 5%.

What about the Activity [4] of the same molecule?
Its Activity is 100%.

Which ED50 [5] does the source give for `CCCCCCCCc1ccc(CCC(N)COP(=O)(O)O)cc1` (centres undefined) here?
Its ED50 is 0.06 mg/kg.

What does the source list for `CCCCCCCCc1ccc(CCC(N)(CO)CCP(=O)(O)O)cc1` (centres undefined)?
IC50 [6]: 7 nM; IC50 [7]: 6 nM; ED50 [5]: 2.35 mg/kg

Which IC50 [1] does the source give for `CCCCCCCCc1ccc(CNCCCP(C)(=O)O)cc1` here?
The IC50 was 12 nM.

And the IC50 [2]?
The IC50 was 100 nM.

What does the source list for `CCCCCCCCc1ccc(CN2CC(C(=O)O)C2)cc1`?
IC50 [1]: 18 nM; IC50 [2]: 4900 nM; ED50 [8]: 5.2 mg/kg; bioavailability [9]: > 70%

With `CCCCCCCCc1ccc(CC[C@@H](N)C[C@H](O)P(=O)(O)O)cc1` as the molecule, how does the ED50 [5] read?
Its ED50 is 0.15 mg/kg.

With `CCc1cc(-c2noc(-c3cc(CC(C)C)nc(OC)c3)n2)cc(C)c1OC[C@@H](O)CNC(=O)CO` as the molecule, how does the Activity [3] read?
The Activity was 133%.

For `CCC/N=C1\S/C(=C\c2ccc(OC[C@H](O)CO)c(Cl)c2)C(=O)N1c1ccccc1C` [PONESIMOD], which Activity [10] is on record?
Its Activity is 10 to 12 bpm.

Which results are given for `CCc1cc(-c2noc(-c3cc(OC)nc(C(CC)CC)c3)n2)cc(C)c1OC[C@@H](O)CO`?
Activity [3]: < 5%; Activity [4]: 24%

For `CCc1cc(/C(C)=N/OCc2ccc(C3CCCCC3)c(C(F)(F)F)c2)ccc1CN1CC(C(=O)O)C1` [SIPONIMOD], which Activity [11] is on record?
The Activity was 16 bpm.

Which Activity [12] does the source give for `CCCCCCCCc1ccc2c(c1)CC(N)(CO)CC2` (centres undefined) here?
The Activity was 64%.

What does the source list for `COCc1cc(-c2nc(-c3cccc(OCC(=O)O)c3)no2)ccc1-c1ccccc1C`?
Ki [13]: 0.8 nM; Ki [14]: 1040 nM

Which Activity [15] does the source give for `O=C(O)C1(C(=O)O)CC(NCc2ccc(-c3noc(-c4ccc(-c5ccccc5)c(F)c4)n3)cc2)C1` here?
Its Activity is 86%.

What does the source list for `COCc1cc(-c2nc(-c3ccc(-c4ccc(C(=O)O)c(F)c4)cc3)no2)ccc1-c1ccccc1C`?
Ki [13]: 2.9 nM; Ki [14]: 2200 nM

Which half-life [16] does the source give for `CC(C)Cc1ccc(-c2nc(-c3ccc(CN4CC(C(=O)O)C4)c(F)c3)no2)cc1` [ICANBELIMOD] here?
The half-life was 5.5 h.

What about the half-life [17] of the same molecule?
The half-life was 5.5 h.

With `CCCCCCCCc1ccc(CNCCCC(=O)O)cc1` as the molecule, how does the IC50 [1] read?
The IC50 was 7.7 nM.

And the IC50 [2]?
Its IC50 is 1200 nM.

What does the source list for `CCc1cc(-c2noc(-c3cc(CC(C)C)nc(OC)c3)n2)cc(C)c1OC[C@@H](O)CO`?
Activity [3]: < 5%; Activity [4]: 124%

Which half-life [16] does the source give for `CC(C)Cc1ccc(-c2nc(-c3ccc(CN4CC(C(=O)O)C4)cc3)no2)cc1` here?
Its half-life is 11 h.

And the half-life [17]?
The half-life was 9 h.

For `CCCCCCCCc1ccc(CCC(N)(CO)CO)cc1` [FINGOLIMOD], which Activity [18] is on record?
Its Activity is 8 to 11 bpm.

And the Activity [19]?
Its Activity is 1 to 2 bpm.

With `CCc1cc(-c2nnc(-c3sc(C)c4c3C[C@@H]3[C@H]4C3(C)C)o2)cc(C)n1` as the molecule, how does the Activity [20] read?
The Activity was 77%.

Which EC50 [21] does the source give for `N#CC1(NC(=O)[C@@H](O)c2ccc(-c3noc(-c4onc(-c5ccccc5)c4C(F)(F)F)n3)cc2)CC1` here?
The EC50 was 15 nM.

What about the EC50 [22] of the same molecule?
Its EC50 is over 31000 nM.

Source: ChEMBL document CHEMBL4028806, “Modulators of Sphingosine-1-phosphate Pathway Biology: Recent Advances of Sphingosine-1-phosphate Receptor 1 (S1P1) Agonists and Future Perspectives” (J Med Chem, 2017)
